The source of these data is publication PMC6060094, “Structural determinants of the catalytic mechanism of Plasmodium CCT, a key enzyme of malaria lipid biosynthesis” (Scientific Reports, 2018).

The structures appear in SMILES notation.

The target in test [1] is T1, PfCCT(581–775) (Plasmodium falciparum, UniProt P49587, DEL194-211).
T1 construct: The PfCCT(581–775) construct was obtained using previously described PfCCT(528–795); 6xHis (TEV-cleavable) (N, cleaved yes); made in house; host or cells: E. coli BL21 (DE3)
The experiment in a line: Saturation Transfer Difference NMR (STD-NMR) ligand binding. Particulars: 50 µM PfCCT(581-775), 283 K. The method, then: In order to provide structural insights into the mechanism of action of PfCCT, we set out to crystallize the constitutively active C-terminal catalytic domain of PfCCT. Several constructs were tested and our attempts were successful only in case of PfCCT(581–775) that corresponds to the exact region visible in the crystal structure of RnCCT (PDB: 3HL4)[20] (Fig. 1a). […] (Table 1 and Supplementary Fig. S1). We further assessed the functionality of PfCCT(581–775) by characterizing its substrate and product binding ability. […] Saturation Transfer Difference Nuclear Magnetic Resonance (STD-NMR) experiments indicated STD signal of CTP, ChoP and CDPCho bound to PfCCT(581–775) at 1 mM, 4 mM and 1 mM concentrations, respectively (Supplementary Fig. S1). This latter result is consistent with previously observed unusually low ChoP affinity of PfCCT[16]. We concluded that PfCCT(581–775) is compatible with substrate and product recognition and may be amenable to structural studies provided that its compromised enzymatic function is taken into account in structure-based interpretations. It is likely that the drop of PfCCT(581–775) enzyme activity is due to the elimination of the C-terminal flanking part as similarly located truncations in the RnCCT catalytic domain also led to severe loss of activity[28],[29]. […]
Kinetic data are fitted with the Michaelis–Menten equation. […] Values of the measured kinetic and thermodynamic parameters and their errors […]
(black) of 50 µM PfCCT(581-775) in 20 mM Tris/HCl pH 7.5, 150 mM NaCl and 2 mM EtSH are shown in presence of c) 1 mM CTP, d) 4 mM ChoP and e) 1 mM CDPCho. […] The 1D 1H STD-NMR spectra were recorded on a Bruker 500 MHz instrument at 283 K with 256 scans and selective saturation of protein resonances at 0.922 ppm using a series of Gaussian shaped pulses (20 ms, 1 ms delay between the pulses). […] All 1D 1H NMR spectra were recorded […]

The target of test [2] is T1, PfCCT(581–775). As to the kind of experiment: Equilibrium ligand binding by isothermal titration calorimetry (ITC). Particulars: 20 °C. The method, then:
(§1) Calorimetric measurements were performed on an ITC 200 titration calorimeter (Malvern) at 20 °C. The protein samples were dialyzed against 20 mM HEPES/NaOH pH 7.5, 100 mM NaCl, including 0.5 mM Tris(2-carboxyethyl)phosphine (TCEP) as reducing agent. CTP and CDPCho were diluted from a concentrated stock into the dialysis buffer with subsequent pH adjustment. Concentration of the titrating nucleotide ligands were determined using molar extinction coefficients 9000 M^−1 cm^−1 at 271 nm for CTP and 5000 M^−1 cm^−1 at 260 nm for CDPCho[16]. In the experimental setup, the cell of the instrument was filled with protein and the syringe with the ligand. The titrations typically included 19 steps of injection with 2 μl of ligand per injection spaced 180 s apart from each other, with the injection syringe rotating at 750 r.p.m. The data were analyzed using MICROCAL ORIGIN software following the directions of the manufacturer. To account for dilution, the invariant integrated heat value of the last 3–5 data points was subtracted from all data points. The one set of independent sites binding model was applied to data for determination of thermodynamic parameters: dissociation constant (Kd), stoichiometry (N), enthalpy (ΔH) and entropy (ΔS). Due to the low apparent affinity, the N value was fixed to a constant value of 1 in CTP titrations to PfCCT(528–795) K663A according to the low c value ITC data analysis protocol[40],[41]. For CTP and CDPCho titrations of PfCCT(528–795) K663A, and CTP titrations of T761A and T762A variants of PfCCT(528-795), mean and SD from two independent experiments are provided, whereas for CDPCho titrations of PfCCT(581–775) and PfCCT(528-795) mean and SD from three independent experiments are provided. For PfCCT(528-795) (Y626F/Q636A), errors of model fit to data of a single ligand binding experiment are given.
Background: ITC needs no label: the signal is the heat of the interaction.

A further test concerns the target PfCCT(528–795) K663A (Plasmodium falciparum, UniProt Q8IEE9, DEL720-737/K663A). Described as above. Particulars: 20 °C. The method, then: as §1
In test [3] the target is T2, PfCCT(528–795) (Plasmodium falciparum, UniProt P49587, DEL194-211).
T2 construct: previously described PfCCT(528–795) lacking the lysine-rich Plasmodium specific loop (720–737); His-tag; made in house
The description is as above. The following applies: 20 °C. The method, then: as §1

The target in test [4] is T3, PfCCT(528–795) Y626F/Q636A (Plasmodium falciparum, UniProt Q8IEE9, DEL720-737/Q636A/Y626F). The test is described as above. Particulars: 20 °C, pH 7.5, single experiment, errors of model fit. The method, then:
as §1

Test [5] addresses T3, PfCCT(528–795) Y626F/Q636A. The experiment in a line: Continuous coupled colorimetric enzyme activity assay (PPase/PNP/MESG). The following applies: ChoP varied 0.5–20 mM, CTP fixed 1 mM; read-out: KM,ChoP. The format is biochemical. The method, then:
(§2) Enzyme activity measurements were performed as described previously, using a continuous coupled colorimetric assay with pyrophosphatase (PPase), purine nucleoside phosphorylase (PNP) auxiliary enzymes and the auxiliary substrate 7-methyl-6-thioguanosine (MESG)[16],[30],[39]. For CTP substrate titrations, CTP concentration was varied between 100 μM and 2 mM while ChoP concentration was kept constant at 5 mM. For ChoP titrations, ChoP concentration was varied between 0.5 mM and 20 mM while CTP concentration was kept constant at 1 mM. Initial velocities were calculated from the first 10% of the progress curves using phosphate calibration as reference. Due to the low activity of PfCCT(581–775) and PfCCT(528–795) T761A, T762A variants, the enzyme was used at 10 μM concentration and the slope of the absorbance change was determined after monitoring the reaction for 20 minutes. For measurements with PfCCT(528–795) K663A the following reagent concentrations were used in the enzyme assay: [PPase] = 0.17 U·ml^−1, [PNP] = 1.25 U·ml^−1, [MESG] = 0.1 mM, [Mg^2+] = 5 mM and [PfCCT(528–795) K663A] = 10 μM, to yield adequate signal-to-noise ratio (S/N > 10). Three independent experiments were performed for CTP and ChoP kinetic titrations of PfCCT(528–795) K663A. Global fit of CTP and ChoP kinetic titrations for each enzyme variant was performed in Origin 8.6 using Michaelis–Menten equation, to yield a single kcat parameter.

Test [6] has as its target T2, PfCCT(528–795). On the set-up: method as in Nagy et al.[16]. The following applies: ref Nagy et al.[16]; read-out: KM,ChoP; cited from earlier work.
Another test relates to PfCCT(528–795) T762A. As to the kind of experiment: Continuous coupled colorimetric enzyme activity assay (PPase/PNP/MESG). The format is biochemical, Plasmodium falciparum. The following applies: ChoP varied 0.5–20 mM, CTP fixed 1 mM; read-out: KM,ChoP. The method, then: as §2
A further test has as its system PfCCT(528–795) T761A. The description is as above. In kind it is biochemical, Plasmodium falciparum. The following applies: ChoP varied 0.5–20 mM, CTP fixed 1 mM; read-out: KM,ChoP. The method, then:
as §2

T3 sequence (Q8IEE9 528-795, stated change not applied): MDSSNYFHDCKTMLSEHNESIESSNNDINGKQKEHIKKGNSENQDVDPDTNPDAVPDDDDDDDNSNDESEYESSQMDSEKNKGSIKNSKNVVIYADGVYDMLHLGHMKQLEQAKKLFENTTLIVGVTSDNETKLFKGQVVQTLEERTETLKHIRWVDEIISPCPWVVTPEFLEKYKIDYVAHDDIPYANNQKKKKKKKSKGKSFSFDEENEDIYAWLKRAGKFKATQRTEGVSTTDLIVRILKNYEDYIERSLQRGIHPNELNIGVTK
Sequence of PfCCT(528–795) K663A (Q8IEE9 528-795, stated change not applied): as above

With `C[N+](C)(C)CCOP(=O)(O)OP(=O)([O-])OC[C@H]1O[C@@H](n2ccc(N)nc2=O)[C@H](O)[C@@H]1O` [CDPCho, CDP-choline], at PfCCT(581–775) [1] (ligand 1 mM), the “STD-NMR signal of ligand bound to enzyme” value is reported as “STD signal”. In addition, the ΔGCDP-Cho was -5.8 ± 0.1 kcal/mol at PfCCT(581–775) [2] (pH 7.5), -5.0 ± 1.4 kcal/mol at PfCCT(528–795) K663A (pH 7.5), -6.0 ± 0.2 kcal/mol on PfCCT(528–795) [3] (pH 7.5) and -6.2 ± 0.1 kcal/mol in test [4]. Besides, the ΔHCDP-Cho on PfCCT(581–775) [2] (pH 7.5) was -10.5 ± 0.3 kcal/mol; on PfCCT(528–795) K663A (pH 7.5), -11.4 ± 1.5 kcal/mol; on PfCCT(528–795) [3] (pH 7.5) it was -16.1 ± 0.1 kcal/mol; in [4] it was -12.0 ± 0.2 kcal/mol. In addition, the “−TΔSCDP-Cho” value was determined as 4.7 ± 0.4 kcal/mol at PfCCT(581–775) [2] (pH 7.5), 6.5 ± 1.6 kcal/mol on PfCCT(528–795) K663A (pH 7.5), 10.1 ± 0.1 kcal/mol on PfCCT(528–795) [3] (pH 7.5) and 5.8 ± 0.1 kcal/mol in [4]. In addition, the equilibrium dissociation constant (Kd) at PfCCT(581–775) [2] (pH 7.5, read-out: Kd,CDP-Cho) is 47 ± 5 µM; at PfCCT(528–795) K663A (pH 7.5, read-out: Kd,CDP-Cho), 210 ± 60 µM; on PfCCT(528–795) [3] (pH 7.5, read-out: Kd,CDP-Cho), 34 ± 1 µM; in test [4] (read-out: Kd,CDP-Cho) it was 22.2 ± 0.2 µM.
On to `C[N+](C)(C)CCOP(=O)(O)O` [ChoP, phosphocholine], for which, at PfCCT(581–775) [1] (ligand 4 mM), the “STD-NMR signal of ligand bound to enzyme” value is on record as “STD signal”. Further, the Michaelis-Menten constant (Km) in [5] was 1600 µM; on PfCCT(528–795) [6], 1950 µM; in the test with PfCCT(528–795) T762A it was 2100 µM; in the test with PfCCT(528–795) T761A, 3700 µM.

Broadly, the Kd is the free concentration of one partner at which half of the binding sites on the other are occupied at equilibrium, for simple one-to-one binding. Usually Km stands for the concentration of substrate that gives half-maximal velocity.
